Values quoted from earlier work in US9662344B2, “Carnitine retention” (The University of Nottingham, priority 2003, dated 2017).
Like-named read-outs stand apart in the source and are kept apart here.

What was measured:
[1] = tested on: skeletal muscle carnitine uptake; details: isolated cells (Georges et al., 2000)
[2] = not given; remark: listed apart in the source
[3] = oral doses of L-carnitine between 2 and 6 g

In the case of `C[N+](C)(C)C[C@H](O)CC(=O)[O-]` [L-carnitine], the “resting skeletal muscle carnitine content” value (6 g every day for up to 2 weeks (Vukovich et al 1994)) is listed as “no significant increase”, the VO2 max (competitive walkers, oral 4 g every day for 2 weeks (Marconi et al 1985)) is listed as “slight but significant increase” and the “effect on VO2 max, RQ, maximal exercise, fatty acid utilisation, glucose utilisation, lactate, perceived exertion, or heart rate” value (oral 3-5 g L-carnitine over 5-28 days) is listed as “no effect”. For the same molecule, the VO2 max (single dose 2 g orally an hour before exercise (Vecchiet et al 1990)) was “increase”, the Km [1] was 6.4 µM and the “plasma carnitine concentration of maximum renal reabsorption” value ([2]; above this the excess is excreted in urine) was 60 to 100 µmol/L. For the same molecule, the bioavailability [2, 3] was “less than 20%” and the “time of peak plasma concentrations after ingestion” value [2, 3] was roughly 3 h.
